# Experimental data as given in PubChem BioAssay AID1645848.
# Conditions: buffer; pH 7.4; 6.0 h; 150.0 µM
row,Compound,solubility kinetic
1,CCOC(=O)C1CCN(c2nc(-c3ccc(Br)cc3)cs2)CC1,< 1 µg/mL
2,CCc1c(C)nc2c(-c3cnn(-c4cc(CO)ccn4)c3)c[nH]n2c1=O,10.1 µg/mL
3,CC(C)(C)n1nc(-c2ccc(Cl)cc2)c2c(N)ncnc21,< 1 µg/mL
4,C[C@]12CC[C@@H]3[C@H](CCC4=CC(=O)CC[C@]43C)[C@]1(O)CC[C@@]2(O)C(=O)CO,> 54 µg/mL
5,Cc1ccc(-c2ccnc(N3CCC(C(N)=O)CC3)n2)cc1,2.67 µg/mL
6,CN(C)C(=O)NC1CCC(CCN2CCN(c3cccc(Cl)c3Cl)CC2)CC1 (centres undefined),34.8 µg/mL
7,COc1ncc(-c2ccc3c(Nc4cc(Oc5cc(F)cc(F)c5)cc(C(=O)O)c4)c(S(=O)(=O)NC4CC4)cnc3c2)c(OC)n1,21.5 µg/mL
8,NC(=O)C1CCN(c2nc(-c3ccccc3C(F)(F)F)cs2)CC1,> 52 µg/mL
9,CN(C)c1ccc(CN2CCNc3cc(Nc4ccccc4)ncc3C2)cc1,> 83 µg/mL
10,CC(C)c1ccccc1-c1nc2c(c(NCc3ccc(-c4cccnc4)cc3)n1)CNC2,40.9 µg/mL
11,O=C(Cc1ccc(O)cc1)N1CC(CNc2ccccc2)C2(C1)CN(c1ccccc1)C2 (centres undefined),< 1 µg/mL
12,CC1CCN(S(=O)(=O)c2ccc3c(c2)C(C)(C)C(=O)N3CC(=O)NCc2ccco2)CC1,34.2 µg/mL
13,C[C@@H]1Cc2c([nH]c3cc(Cl)c(F)cc23)[C@]2(N1)C(=O)Nc1ccc(Cl)cc12,13.3 µg/mL
14,Clc1ccccc1-c1nccc(-n2ccnc2)n1,7.3 µg/mL
15,CC(C)c1ccccc1-c1ncc(F)c(NCc2ccc(-n3ccnn3)cc2)n1,2.13 µg/mL
16,N#Cc1nc(-c2cccc3ccccc23)oc1NCc1ccccc1,< 1 µg/mL
17,CCN1CCc2c(sc(NC(=O)Nc3ccc(Cl)c(Cl)c3)c2C(N)=O)C1,< 1 µg/mL
18,Nc1c(C(=O)Nc2ccc(Cl)c(C(F)(F)F)c2)sc2nc3c(cc12)N1CCC3CC1,< 1 µg/mL
19,C=C1c2cccc(O)c2C(O)=C2C(=O)[C@]3(O)C(O)=C(C(N)=O)C(=O)[C@@H](N(C)C)[C@@H]3[C@@H](O)[C@H]12,> 65 µg/mL
20,FC(F)(F)c1cccc(Nc2ccc(CNc3nc(-c4ccccc4C(F)(F)F)nc4ccccc34)cc2)c1,< 1 µg/mL
21,Cc1cccc(N2CCN(c3nc4ccccc4c4nnc(C)n34)CC2)c1C,< 1 µg/mL
22,Cl.N=c1c2c(n(Cc3ccccc3)c3c1CCC3)CCC2,> 39 µg/mL
23,CC(C)CC(C)NC(=O)c1noc(-c2ccc[nH]c2=O)n1 (centres undefined),> 43 µg/mL
24,CC(C)c1ccccc1-c1ncc(F)c(NCc2ccc(-c3ccn[nH]3)cc2)n1,< 1 µg/mL
25,COC(=N)c1nc2ccc3ncnc(Nc4ccc(F)cc4Br)c3c2s1,< 1 µg/mL

row,Compound,solubility kinetic
1,N#Cc1nc(-c2cccc3ccccc23)oc1NC1CNC1,9.62 µg/mL
2,CC1CCN(S(=O)(=O)c2ccc3c(ccc(=O)n3CC(=O)NCc3ccc(Cl)cc3)c2)CC1,< 1 µg/mL
3,CCOC(=O)c1nn(-c2ccc(OC)cc2)c(=O)c2c(N)scc12,5.68 µg/mL
4,CNc1oc(-c2cccc(Cl)c2Cl)nc1C#N,< 1 µg/mL
5,COc1ccc(CN2CCNc3cc(Nc4ccccc4)ncc3C2)cn1,31.1 µg/mL
6,C=CC(=O)N1CCCN(c2cc(NCCC(=O)O)nc(-c3ccccn3)n2)CC1,> 59 µg/mL
7,Cc1nn(CCc2nc(-c3ccc(OC(F)F)cc3)cs2)c2[nH]c(=O)cc(C(F)(F)F)c12,< 1 µg/mL
8,Cc1cc(C)nc(NC(=S)N2CCN(c3ccc(C(F)(F)F)cc3Cl)CC2)c1,3.08 µg/mL
9,CNc1nc2c(s1)C(c1ccccc1F)CC(=O)N2 (centres undefined),13.7 µg/mL
10,Cc1ccc([S+](=O)([O-])n2cc(-c3ccc(-c4ccccc4)cc3)c3ccccc32)cc1,< 1 µg/mL
11,COC12C(COC(N)=O)C3=C(C(=O)C(C)=C(N)C3=O)N1CC1C2N1C (centres undefined),> 51 µg/mL
12,NC(=O)C1CCN(c2nc(-c3cccs3)cs2)CC1,> 43 µg/mL
13,CCCS(=O)(=O)c1nc(NC2CC2)cc(-c2ccc3c(ccn3C3CC(C)(C)NC(C)(C)C3)c2)n1,< 1 µg/mL
14,COc1ccc(-n2nc(C)c([C@@H]3C=C[C@@H](NCc4ccc(F)cc4)C3)c2C)cc1,42 µg/mL
15,CN(C)c1cccc(-c2nccc(N3CCC(C(N)=O)CC3)n2)c1,> 48 µg/mL
16,Nc1nc2c(s1)C(c1cccc(Cl)c1Cl)CC(=O)N2 (centres undefined),< 1 µg/mL
17,CC1(C)CC(=O)C2=C(C1)NC(Nc1nc3ccccc3o1)=NC2c1ccccc1Cl (centres undefined),< 1 µg/mL
18,COc1cc2c(cc1OC)C(C[C@H]1CN(S(=O)(=O)c3cccc(C#N)c3)CC[C@H]1CC(=O)O)=NCC2,> 76 µg/mL
19,COc1ccc(-c2cn[nH]c2-c2ccc(OC)cc2)cc1,4.26 µg/mL
20,Cc1nn(CC(=O)NCCCN2CCC(N3CCCCC3)CC2)c(=O)c2cc(-c3ccccc3)nn12,> 73 µg/mL
21,COc1ccccc1-c1[nH]nc2ncc(-c3ccc(C)cc3)nc12,< 1 µg/mL
22,CC(C)(C)C1CCc2[nH]c3ccccc3c(=O)c2C1 (centres undefined),1.88 µg/mL
23,O=C(CCCN1CCC2(CC1)C(=O)N(Cc1cccc(F)c1)CN2c1ccccc1)c1ccc(F)cc1,4.23 µg/mL
24,c1c[nH]c(C2CCN(c3ncc(-c4ccc5c(c4)OCCCO5)s3)CC2)n1,4.09 µg/mL
25,CCN(CC)CCNC(=O)C1CCN(c2nn3cc(-c4ccc(F)cc4)nc3s2)CC1,> 66 µg/mL

# Second part, the compound after the results:
row,solubility kinetic,Compound
1,< 1 µg/mL,Cc1ccc(-c2cc(C(=O)NCc3cnn(C)c3C)c3cc(Br)ccc3n2)cc1
2,6.41 µg/mL,CCN1C(=O)c2ccccc2S(=O)c2ccc(NC(=O)Cc3ccc(OC)cc3)cc21 (centres undefined)
3,< 1 µg/mL,COc1ccc(-c2csc(NC(=O)c3ccccc3NS(=O)(=O)c3ccc(C)cc3)n2)cc1
4,2.6 µg/mL,CC(=O)c1ccc(N2CCN(S(=O)(=O)c3ccc4c(c3)n(C)c(=O)n4C)CC2)cc1
5,4.84 µg/mL,CNS(=O)(=O)c1cc(-c2nn3c(C)nnc3c3ccccc23)ccc1C
6,< 1 µg/mL,Fc1cc(Nc2nc(-c3ccncc3)nc3ccccc23)ccc1-c1cccc(OC(F)(F)F)c1
7,< 1 µg/mL,Cc1ccc(NS(=O)(=O)c2ccc3[nH]c4c(c3c2)CCCCCC4)cc1
8,26.2 µg/mL,CCOC(=O)c1ccc(-c2ccc3ncnc(NCCc4cnc[nH]4)c3c2)o1
9,18.3 µg/mL,CC(=O)Nc1ccc(N[S+](=O)([O-])c2cccc(NC(=O)c3[nH]c(C)c(C(C)=O)c3C)c2)cc1
10,28.1 µg/mL,COCCNC(=O)c1ccc(-c2ncc3cnc(-c4cccc(F)c4)cn23)cc1
11,> 67 µg/mL,Cc1ccc(S(=O)(=O)Nc2cnccc2C(=O)Nc2nc(-c3ccncc3)cs2)cc1
12,< 1 µg/mL,C#Cc1ccc(NC(=O)c2cnn3c(C)cc(C)nc23)cc1
13,< 1 µg/mL,COc1ccc(Nc2ncc(C(=O)Nc3cccc(Cl)c3)c3ccccc23)cc1
14,< 1 µg/mL,COc1ccccc1NC(=O)c1oc2ccccc2c1NC(=O)Cc1cccs1
15,< 1 µg/mL,COc1cccc(NC(=O)c2cccc3c(=O)c4c([nH]c23)CCCC4)c1
16,< 1 µg/mL,Cc1ccc(-c2cc(C(=O)NC3CCCCC3)c3ccccc3n2)cc1
17,> 58 µg/mL,CCOc1ccc(CCNC(=O)c2ccnn2Cc2ccccn2)cc1OCC
18,< 1 µg/mL,O=C(Nc1ncc(Cc2ccc(C(F)(F)F)cc2)s1)c1cnc(-c2ccccc2)[nH]1
19,< 1 µg/mL,COc1ccc(C(=O)Nc2nc(-c3ccccc3)cs2)c(NS(=O)(=O)c2ccc(C)cc2)c1
20,< 1 µg/mL,c1ccc2c(NC3CCCCC3)nc(-c3ccncc3)nc2c1
21,< 1 µg/mL,COc1cccc(CNC(=O)c2ccc(N3CCCC3)c(NC(=O)Nc3ccccc3F)c2)c1
22,< 1 µg/mL,CCOC(=O)C1=C(CN(CC)Cc2ccccc2)NC(=O)NC1c1ccc(OC(C)C)cc1 (centres undefined)
23,2.37 µg/mL,Cc1ccc(NC(=O)N(Cc2cn(C)c3ccccc23)C2CCCCC2)cc1C
24,< 1 µg/mL,Fc1cc(Nc2nc(-c3ccncc3)nc3ccccc23)ccc1-c1ccnc(C(F)(F)F)c1
25,8.9 µg/mL,c1ccc(C2=Nn3c(nnc3-c3ccncc3)SC2)cc1

row,solubility kinetic,Compound
1,7.82 µg/mL,Cc1ccc(NS(=O)(=O)c2ccc3c(c2)NC(=O)CO3)cc1C
2,> 37 µg/mL,CSc1ccc(C(=O)c2[nH]c(=O)[nH]c2C)cc1
3,23.8 µg/mL,CCOc1ccc(NC(=O)CSC2=Nc3ccccc3C3=NC(CC(=O)NCc4cccs4)C(=O)N23)cc1 (centres undefined)
4,> 60 µg/mL,COc1ccc(Cn2c(C(=O)O)c(CNCc3ccco3)c3ccc(C)cc32)cc1
5,< 1 µg/mL,O=C(CSc1nc(-c2ccc(F)cc2)[nH]c1-c1ccc(F)cc1)Nc1ccc2c(c1)OCCO2
6,< 1 µg/mL,COc1ccccc1C(=O)Nc1nnc(SCc2cc(=O)c3ccccc3[nH]2)s1
7,1.75 µg/mL,O=C(Nc1ccccc1O)c1ccc(NC(=O)C2CC2)cc1
8,> 29 µg/mL,O=C(O)c1cnc(-c2ccc(F)cc2)nc1-c1ccncc1
9,> 51 µg/mL,CCCOC(c1cc2nccc(C(=O)O)c2[nH]1)c1ccccc1Cl (centres undefined)
10,< 1 µg/mL,CNC(=O)c1cccc(-c2cnc(Nc3cccc(C(F)(F)F)c3)c3c2CCO3)c1
11,> 61 µg/mL,CC(=O)c1c(C)[nH]c(C(=O)Nc2cccc([S+](=O)([O-])Nc3ccncc3)c2)c1C
12,< 1 µg/mL,COc1ccc(-c2nc3ccccc3s2)cc1NC(=O)c1ccc(F)cc1
13,27.9 µg/mL,Cc1ccc(C)c(CN2CCC(CNC(=O)Nc3ccc(Br)cc3F)CC2)c1
14,7.05 µg/mL,O=C(Nc1ccc([S+](=O)([O-])Nc2nccs2)cc1)c1ccccn1
15,2.16 µg/mL,CC(=O)c1c(C)[nH]c(C(=O)Nc2cccc([S+](=O)([O-])Nc3ccccc3)c2)c1C
16,2.36 µg/mL,CCc1ccc(NC(=O)CSC2=Nc3ccccc3C3=NC(CC(=O)NCc4ccc5c(c4)OCO5)C(=O)N23)cc1 (centres undefined)
17,54.8 µg/mL,COc1ccc(-c2csc(NC(=O)c3ccncc3NS(=O)(=O)c3ccc(C)cc3)n2)cc1
18,< 1 µg/mL,Cc1sc(NC(=O)Cc2ccc3c(c2)OCO3)nc1-c1ccc2c(c1)CCN2C(=O)c1ccccc1Cl
19,< 1 µg/mL,COC(=O)c1c(NC(=O)Cc2coc3cc(C)ccc23)sc2c1CCC2
20,< 1 µg/mL,Cc1ccccc1Nc1c(-c2ccccc2O)nc2sccn12
21,37.2 µg/mL,O=S(=O)(Nc1nccs1)c1ccc(NCc2cc(Cl)ccc2O)cc1
22,< 1 µg/mL,O=C(Nc1ncc(Cc2ccc(C(F)(F)F)cc2)s1)c1cnc(-c2ccccc2)s1
23,13.2 µg/mL,Fc1ccccc1CNCc1ccc(-c2ccnc3[nH]ccc23)cc1
24,11.5 µg/mL,Cc1cc(C)c(C(=O)Nc2cccc([S+](=O)([O-])N3CCCC3)c2)[nH]1
